Columns and labels:
[1] = system: APT (3-O-C12-HSL aptamer) (DNA, aptamer) GCAATGGTACGGTACTTCCCGGGGCCCGCTTCTGGTGCGGTGTACTAGTGACCGCAAAAGTGCACGCTACTTTGCTAA; assay: EIS aptasensor (C-SPE/AuNPs/APT/MCH); settings: 10 µM compound, 30 min, room temperature; [Fe(CN)6]3-/4- redox probe
[2] = system: APT (3-O-C12-HSL aptamer) (DNA, aptamer) GCAATGGTACGGTACTTCCCGGGGCCCGCTTCTGGTGCGGTGTACTAGTGACCGCAAAAGTGCACGCTACTTTGCTAA; assay: SPR, steady-state affinity fit; settings: Na+ 100 mM; K+ 100 mM; Mg2+ 10 mM (TRIS buffer; running buffer printed only as 10 mM TRIS); 10 mM TRIS pH 7.4 running buffer; aptamer on gold chip, MCH blocked; 10-1000 nM
[3] = system: APT (3-O-C12-HSL aptamer) (DNA, aptamer) GCAATGGTACGGTACTTCCCGGGGCCCGCTTCTGGTGCGGTGTACTAGTGACCGCAAAAGTGCACGCTACTTTGCTAA; assay: SPR, kinetic 1:1 Langmuir fit (kd/ka); settings: Na+ 100 mM; K+ 100 mM; Mg2+ 10 mM (TRIS buffer; running buffer printed only as 10 mM TRIS); 10 mM TRIS pH 7.4 running buffer; aptamer on gold chip, MCH blocked; 10-1000 nM
[4] = system: APT (3-O-C12-HSL aptamer) (DNA, aptamer) GCAATGGTACGGTACTTCCCGGGGCCCGCTTCTGGTGCGGTGTACTAGTGACCGCAAAAGTGCACGCTACTTTGCTAA; assay: DPV on C-SPE/AuNPs/APT/MCH electrode; settings: 0.5 mM MB, 30 min; measured in 10 mM PBS pH 7.4; MB lost on successive blank incubations

SMILES | binding [1] | other results
CCCC(=O)N[C@H]1CCOC1=O | weak | –
CCCCCCCC(=O)CC(=O)N[C@H]1CCOC1=O | yes | –
CCCCCCCCCC(=O)CC(=O)N[C@H]1CCOC1=O | – | KD,equilibrium [2]: 106.7 ± 9.3 nM; KD,kinetic [3]: 87.1 ± 10 nM
CCCCCCCCCCCC(=O)N[C@H]1CCOC1=O | yes | –
CN(C)c1ccc2nc3ccc(N(C)C)cc3[s+]c2c1 | – | binding [4]: yes
